Results: ChEMBL document CHEMBL5370563, “Molecular Networking-Guided Isolation of Cyclopentapeptides from the Hydrothermal Vent Sediment Derived Fungus Aspergillus pseudoviridinutans TW58-5 and Their Anti-inflammatory Effects” (J Nat Prod, 2023)
The source made the active and inactive calls. The rule behind the calls is not given here.

Assays:
[1] = tested on: RAW264.7; experiment: Antiinflammatory activity in LPS-induced mouse RAW264.7 cells assessed as inhibition of NO production at 20 uM measured after 24 hrs by Griess reagent based assay; format: functional, cell-based
[2] = tested on: RAW264.7; experiment: Cytotoxicity against LPS-induced mouse RAW264.7 cells assessed as reduction in cell viability at 20 uM incubated for 24 hrs by MTT assay; format: toxicity, cell-based; conditions: raw264.7, 24 h
[3] = tested on: RAW264.7; experiment: Antiinflammatory activity in LPS-induced mouse RAW264.7 cells assessed as reduction in iNOS protein expression at 20 uM measured after 24 hrs by Western blot analysis; format: functional, cell-based
[4] = tested on: RAW264.7; experiment: Antiinflammatory activity in LPS-induced mouse RAW264.7 cells assessed as inhibition of NO production measured after 24 hrs by Griess reagent based analysis; format: functional, cell-based; conditions: dose 0.1-20 µM
[5] = tested on: RAW264.7; experiment: Antiinflammatory activity in LPS-induced mouse RAW264.7 cells assessed as inhibition of NLRP3 protein expression at 20 uM measured after 24 hrs by Western blot analysis; format: functional, cell-based

| SMILES | Activity [1] | Activity [2] | Activity [3] | Activity [4] | Activity [5] |
| --- | --- | --- | --- | --- | --- |
| CC[C@@H](C)[C@H]1NC(=O)CNC(=O)[C@H](CC(C)C)NC(=O)c2cccc(O)c2NC(=O)[C@H]([C@H](C)c2ccc(OC)cc2)NC1=O | Active | Non-Toxic |  |  |  |
| CC[C@H](C)[C@H]1NC(=O)CNC(=O)[C@H](Cc2ccccc2)NC(=O)c2cccc(O)c2NC(=O)[C@H]([C@H](C)c2ccc(OC)cc2)NC1=O | Active | Non-Toxic |  |  |  |
| CC[C@H](C)[C@H]1NC(=O)CNC(=O)[C@H](CCC(C)C)NC(=O)c2cccc(O)c2NC(=O)[C@H]([C@H](C)c2ccc(OC)cc2)NC1=O | Active | Non-Toxic |  |  |  |
| COc1ccc([C@@H](C)[C@@H]2NC(=O)[C@@H](CC(C)C)NC(=O)CNC(=O)[C@H](CCC(C)C)NC(=O)c3cccc(O)c3NC2=O)cc1 | Active | Non-Toxic |  |  |  |
| COc1ccc([C@@H](C)[C@@H]2NC(=O)[C@@H](C(C)C)NC(=O)CNC(=O)[C@H](CCC(C)C)NC(=O)c3cccc(O)c3NC2=O)cc1 | Active | Non-Toxic |  |  |  |
| COc1ccc([C@@H](C)[C@@H]2NC(=O)[C@@H](C(C)C)NC(=O)CNC(=O)[C@H](Cc3ccccc3)NC(=O)c3cccc(O)c3NC2=O)cc1 | Active | Non-Toxic |  |  |  |
| COc1ccc([C@@H](C)[C@@H]2NC(=O)[C@@H](CC(C)C)NC(=O)CNC(=O)[C@@H](Cc3ccccc3)NC(=O)c3cccc(O)c3NC2=O)cc1 | Active | Non-Toxic | Active | Dose-Dependent Effect | Active |
